# Reference: patent US9150574B2, “Enzyme inhibitor compounds” (Proximagen Limited, priority 2011, dated 2015)
# Molecular target: T1, purified recombinantly expressed human SSAO (Homo sapiens, UniProt Q16853)
# T1 construct: made in house
# T1 sequence (Q16853 29-763 limits assumed): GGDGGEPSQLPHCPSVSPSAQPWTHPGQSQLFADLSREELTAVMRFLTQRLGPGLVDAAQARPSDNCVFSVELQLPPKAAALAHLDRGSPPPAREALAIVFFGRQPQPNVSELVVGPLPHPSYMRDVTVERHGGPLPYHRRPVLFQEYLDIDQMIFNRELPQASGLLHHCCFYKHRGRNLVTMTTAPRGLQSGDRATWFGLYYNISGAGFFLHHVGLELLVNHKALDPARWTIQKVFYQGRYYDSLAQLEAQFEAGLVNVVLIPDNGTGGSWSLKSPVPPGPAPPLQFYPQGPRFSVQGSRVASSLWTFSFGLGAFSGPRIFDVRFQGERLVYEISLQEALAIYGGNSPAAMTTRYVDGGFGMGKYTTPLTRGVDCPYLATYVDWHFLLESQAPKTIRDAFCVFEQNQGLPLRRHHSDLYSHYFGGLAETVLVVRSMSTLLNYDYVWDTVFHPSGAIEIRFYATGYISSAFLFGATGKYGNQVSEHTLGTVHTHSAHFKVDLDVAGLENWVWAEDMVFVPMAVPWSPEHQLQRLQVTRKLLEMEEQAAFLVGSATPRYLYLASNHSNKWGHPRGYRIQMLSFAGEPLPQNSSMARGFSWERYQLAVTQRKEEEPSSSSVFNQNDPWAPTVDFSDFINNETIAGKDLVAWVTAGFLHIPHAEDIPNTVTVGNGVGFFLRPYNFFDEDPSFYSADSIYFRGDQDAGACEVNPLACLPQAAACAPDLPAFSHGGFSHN
# Assay: SSAO enzyme inhibition assay (benzylamine substrate; hydrogen peroxide/HRP-coupled or 14C aldehyde detection)
# Format: biochemical
# Conditions: human recombinant SSAO, RT, benzylamine as substrate; read-out: SSAO inhibitory activity IC50
# Procedure: All primary assays were performed at RT. with purified recombinantly expressed human SSAO. Enzyme was prepared essentially as described in Ohman et al. (Protein Expression and Purification 46 (2006) 321 331). In addition, secondary- and selectivity assays were performed using SSAO prepared from various tissues or purified rat recombinant SSAO. The enzyme activity was assayed with benzylamine as substrate by measuring either benzaldehyde production, using ^14C-labeled substrate, or by utilizing the production of hydrogen peroxide in a horseradish peroxidase (HRP) coupled reaction. Briefly, test compounds were dissolved in dimethyl sulfoxide (DMSO) to a concentration of 10 mM. Dose-response measurements were assayed by either creating 1:10 serial dilutions in DMSO to produce a 7 point curve or by making 1:3 serial dilutions in DMSO to produce 11 point curves. The top concentrations were adjusted depending on the potency of the compounds and subsequent dilution in reaction buffer yielded a final DMSO concentration ≦2%.
# In a horseradish peroxidase (HRP) coupled reaction, hydrogen peroxide oxidation of 10-acetyl-3,7-dihydroxyphenoxazine produced resorufin, which is a highly fluorescent compound (Zhout and Panchuk-Voloshina. Analytical Biochemistry 253 (1997) 169-174; Amplex® Red Hydrogen Peroxide/peroxidase Assay kit, Invitrogen A22188). Enzyme and compounds in 50 mM sodium phosphate, pH 7.4 were set to pre-incubate in flat-bottomed microtiter plates for approximately 15 minutes before initiating the reaction by addition of a mixture of HRP, benzylamine and Amplex reagent. Benzylamine concentration was fixed at a concentration corresponding to the Michaelis constant, determined using standard procedures. Fluorescence intensity was then measured at several time points during 1-2 hours, exciting at 544 nm and reading the emission at 590 nm. For the human SSAO assay final concentrations of the reagents in the assay wells were: SSAO enzyme 1 μg/ml, benzylamine 100 μM, Amplex reagent 20 μM, HRP 0.1 U/mL and varying concentrations of test compound. The inhibition was measured as % decrease of the signal compared to a control without inhibitor (only diluted DMSO). The background signal from a sample containing no SSAO enzyme was subtracted from all data points. Data was fitted to a four parameter logistic model and IC50 values were calculated using the GraphPad Prism 4 or XLfit 4 programs.
# SSAO activity was assayed using 14C-labeled benzylamine and analysed by measuring radioactive benzaldehyde. In a white 96-well optiplate (Packard), 20 μL of diluted test compound was pre-incubated at RT. with 20 μL SSAO enzyme for approximately 15 minutes with continuous agitation. All dilutions were made with PBS. The reaction was initiated by adding 20 μL of the benzylamine substrate solution containing [7-14C] Benzylamine hydrochloride (CFA589, GE Healthcare). The plate was incubated for 1 hour as above after which the reaction was stopped by acidification (10 μL 1 M HCl). Then 90 μL Micro Scint-E solution (Perkin-Elmer) was added to each well and the plate was continuously mixed for 15 minutes. Phase separation occurred instantly and activity was read in a Topcount scintillation counter (Perkin-Elmer). In the final reaction well, the human recombinant SSAO concentration was 10 μg/ml. In order to optimize sensitivity, the substrate concentration was decreased as compared to the HRP coupled assay in order to get a higher fraction of radioactive product. In the human SSAO assay, benzylamine concentration was 40 μM (0.2 μCi/mL). Data was analysed as above.
row,IC50,SMILES
1,500 to 2500 nM,"CCCCN(C)c1nn(-c2ccc(Cl)cc2)c2cnccc12 [Example 28, N-Butyl-1-(4-chlorophenyl)-N-methyl-1H-pyrazolo[3,4-c]pyridin-3-amine]"
2,100 to 500 nM,"FCc1ccc(-n2nc(C3CCOCC3)c3ccncc32)cc1 [Example 29, 1-[4-(Fluoromethyl)phenyl]-3-(oxan-4-yl)-1H-pyrazolo[3,4-c]pyridine]"
3,100 to 500 nM,"Clc1ccc(-n2nc(C3CCN(Cc4cccnc4)CC3)c3ccncc32)cc1 [Example 30, 3-({4-[1-(4-Chlorophenyl)-1H-pyrazolo[3,4-c]pyridin-3-yl]piperidin-1-yl}methyl)pyridine]"
